ChEMBL document CHEMBL3817755, “Design, synthesis and biological evaluation of indazolepyrimidine based derivatives as anticancer agents with anti-angiogenic and antiproliferative activities” (Medchemcomm, 2016)

Assays:
Format in all cases: functional
[1] = Growth inhibition of human HL-60(TB) cells at 10 uM after 48 hrs by SRB assay; settings: HL-60, 48 h, read-out: GI
KM12 = test: Growth inhibition of human KM12 cells at 10 uM after 48 hrs by SRB assay; settings: KM12, 48 h, read-out: GI
SN12C = test: Growth inhibition of human SN12C cells at 10 uM after 48 hrs by SRB assay; settings: read-out: GI
NCI-H522 = test: Growth inhibition of human NCI-H522 cells at 10 uM after 48 hrs by SRB assay; settings: NCI-H522, 48 h, read-out: GI
[2] = Growth inhibition of human OVCAR4 cells at 10 uM after 48 hrs by SRB assay; settings: OVCAR-4, 48 h, read-out: GI
MCF7 = test: Growth inhibition of human MCF7 cells at 10 uM after 48 hrs by SRB assay; settings: MCF7, 48 h, read-out: GI
786-0 = test: Growth inhibition of human 786-0 cells at 10 uM after 48 hrs by SRB assay; settings: 786-0, 48 h, read-out: GI
MDA-MB-435 = test: Growth inhibition of human MDA-MB-435 cells at 10 uM after 48 hrs by SRB assay; settings: MDA-MB-435, 48 h, read-out: GI
A549 = test: Growth inhibition of human A549/ATCC cells at 10 uM after 48 hrs by SRB assay; settings: A549, 48 h, read-out: GI
SK-MEL-2 = test: Growth inhibition of human SK-MEL-2 cells at 10 uM after 48 hrs by SRB assay; settings: SK-MEL-2, 48 h, read-out: GI
NCI-H460 = test: Growth inhibition of human NCI-H460 cells at 10 uM after 48 hrs by SRB assay; settings: NCI-H460, 48 h, read-out: GI
[3] = Growth inhibition of human NCI-ADR-RES cells at 10 uM after 48 hrs by SRB assay; settings: read-out: GI
HT-29 = test: Growth inhibition of human HT-29 cells at 10 uM after 48 hrs by SRB assay; settings: HT-29, 48 h, read-out: GI
MDA-MB-231 = test: Growth inhibition of human MDA-MB-231 cells at 10 uM after 48 hrs by SRB assay; settings: MDA-MB-231, 48 h, read-out: GI
[4] = Growth inhibition of human HOP92 cells at 10 uM after 48 hrs by SRB assay; settings: HOP-92, 48 h, read-out: GI
M14 = test: Growth inhibition of human M14 cells at 10 uM after 48 hrs by SRB assay; settings: M14, 48 h, read-out: GI
[5] = Growth inhibition of human UACC62 cells at 10 uM after 48 hrs by SRB assay; settings: UACC-62, 48 h, read-out: GI
EKVX = test: Growth inhibition of human EKVX cells at 10 uM after 48 hrs by SRB assay; settings: read-out: GI
[6] = Growth inhibition of human SKOV3 cells at 10 uM after 48 hrs by SRB assay; settings: SK-OV-3, 48 h, read-out: GI
[7] = Growth inhibition of human OVCAR3 cells at 10 uM after 48 hrs by SRB assay; settings: OVCAR-3, 48 h, read-out: GI
U-251 = test: Growth inhibition of human U251 cells at 10 uM after 48 hrs by SRB assay; settings: U-251, 48 h, read-out: GI
[8] = Growth inhibition of human IGROV1 cells at 10 uM after 48 hrs by SRB assay; settings: IGROV-1, 48 h, read-out: GI
T47D = test: Growth inhibition of human T47D cells at 10 uM after 48 hrs by SRB assay; settings: read-out: GI
K562 = test: Growth inhibition of human K562 cells at 10 uM after 48 hrs by SRB assay; settings: K562, 48 h, read-out: GI
MDA-MB-468 = test: Growth inhibition of human MDA-MB-468 cells at 10 uM after 48 hrs by SRB assay; settings: MDA-MB-468, 48 h, read-out: GI
[9] = Growth inhibition of human LOXIMVI cells at 10 uM after 48 hrs by SRB assay; settings: LOX IMVI, read-out: GI
[10] = Growth inhibition of human SF295 cells at 10 uM after 48 hrs by SRB assay; settings: SF-295, 48 h, read-out: GI
[11] = Growth inhibition of human BT549 cells at 10 uM after 48 hrs by SRB assay; settings: BT-549, 48 h, read-out: GI
[12] = Growth inhibition of human OVCAR5 cells at 10 uM after 48 hrs by SRB assay; settings: OVCAR-5, 48 h, read-out: GI
[13] = Growth inhibition of human COLO205 cells at 10 uM after 48 hrs by SRB assay; settings: COLO 205, 48 h, read-out: GI
SR = test: Growth inhibition of human SR cells at 10 uM after 48 hrs by SRB assay; settings: read-out: GI
[14] = Growth inhibition of human TK10 cells at 10 uM after 48 hrs by SRB assay; settings: TK-10, 48 h, read-out: GI
Malme-3M = test: Growth inhibition of human MALME-3M cells at 10 uM after 48 hrs by SRB assay; settings: read-out: GI
[15] = Growth inhibition of human Hs 578T cells at 10 uM after 48 hrs by SRB assay; settings: read-out: GI
[16] = Growth inhibition of human SNB19 cells at 10 uM after 48 hrs by SRB assay; settings: SNB-19, 48 h, read-out: GI
[17] = Growth inhibition of human Caki1 cells at 10 uM after 48 hrs by SRB assay; settings: CAKI-1, 48 h, read-out: GI
[18] = Growth inhibition of human DU145 cells at 10 uM after 48 hrs by SRB assay; settings: DU-145, 48 h, read-out: GI
[19] = Growth inhibition of human HCT116 cells at 10 uM after 48 hrs by SRB assay; settings: HCT-116, 48 h, read-out: GI
CCRF-CEM = test: Growth inhibition of human CCRF-CEM cells at 10 uM after 48 hrs by SRB assay; settings: read-out: GI
[20] = Growth inhibition of human PC3 cells at 10 uM after 48 hrs by SRB assay; settings: PC-3, 48 h, read-out: GI
NCI-H322M = test: Growth inhibition of human NCI-H322M cells at 10 uM after 48 hrs by SRB assay; settings: read-out: GI
[21] = Growth inhibition of human RXF393 cells at 10 uM after 48 hrs by SRB assay; settings: RXF 393, 48 h, read-out: GI
SK-MEL-5 = test: Growth inhibition of human SK-MEL-5 cells at 10 uM after 48 hrs by SRB assay; settings: SK-MEL-5, 48 h, read-out: GI

In the case of `NS(=O)(=O)c1ccc(Nc2nccc(Nc3ccc4[nH]ncc4c3)n2)cc1`, the inhibition of growth at 10 µM [1] is reported as 2%, the inhibition of growth at 10 µM (KM12) is reported as 22% and the inhibition of growth at 10 µM (SN12C) is reported as 10%. It also gave an inhibition of growth at 10 µM (NCI-H522) of 57%, an inhibition of growth at 10 µM [2] of -12% and an inhibition of growth at 10 µM (MCF7) of 40%. It also gave an inhibition of growth at 10 µM (786-0) of -1%, an inhibition of growth at 10 µM (MDA-MB-435) of 1% and an inhibition of growth at 10 µM (A549) of 11%. The inhibition of growth at 10 µM (SK-MEL-2) was 4%, the inhibition of growth at 10 µM (NCI-H460) was 1% and the inhibition of growth at 10 µM [3] was -6%. It also gave an inhibition of growth at 10 µM (HT-29) of 9%, an inhibition of growth at 10 µM (MDA-MB-231) of 14% and an inhibition of growth at 10 µM [4] of 47%. It also gave an inhibition of growth at 10 µM (M14) of 5%, an inhibition of growth at 10 µM [5] of 11% and an inhibition of growth at 10 µM (EKVX) of -1%. It also gave an inhibition of growth at 10 µM [6] of -4%, an inhibition of growth at 10 µM [7] of -10% and an inhibition of growth at 10 µM (U-251) of 19%. The inhibition of growth at 10 µM [8] was -3%, the inhibition of growth at 10 µM (T47D) was 50% and the inhibition of growth at 10 µM (K562) was 25%. It also gave an inhibition of growth at 10 µM (MDA-MB-468) of 36%, an inhibition of growth at 10 µM [9] of 14% and an inhibition of growth at 10 µM [10] of 2%. The inhibition of growth at 10 µM [11] was -6%, the inhibition of growth at 10 µM [12] was -10% and the inhibition of growth at 10 µM [13] was -4%. The inhibition of growth at 10 µM (SR) was 34%, the inhibition of growth at 10 µM [14] was -16% and the inhibition of growth at 10 µM (Malme-3M) was -3%. For the same compound, the inhibition of growth at 10 µM [15] was 17%, the inhibition of growth at 10 µM [16] was 4% and the inhibition of growth at 10 µM [17] was -4%. For the same compound, the inhibition of growth at 10 µM [18] was -6%, the inhibition of growth at 10 µM [19] was 5% and the inhibition of growth at 10 µM (CCRF-CEM) was 28%. For the same compound, the inhibition of growth at 10 µM [20] was 25%, the inhibition of growth at 10 µM (NCI-H322M) was -5% and the inhibition of growth at 10 µM [21] was 11%. The inhibition of growth at 10 µM (SK-MEL-5) was 11%.

Work on `Fc1ccc(Nc2nccc(Nc3ccc4[nH]ncc4c3)n2)cc1` yielded an inhibition of growth at 10 µM [1] of 31%, an inhibition of growth at 10 µM (KM12) of 76% and an inhibition of growth at 10 µM (SN12C) of 40%. The inhibition of growth at 10 µM (NCI-H522) was 57%, the inhibition of growth at 10 µM [2] was 27% and the inhibition of growth at 10 µM (MCF7) was 37%. For the same compound, the inhibition of growth at 10 µM (786-0) was 32%, the inhibition of growth at 10 µM (MDA-MB-435) was 25% and the inhibition of growth at 10 µM (A549) was 43%. The inhibition of growth at 10 µM (SK-MEL-2) was 24%, the inhibition of growth at 10 µM (NCI-H460) was 40% and the inhibition of growth at 10 µM [3] was 32%. It also gave an inhibition of growth at 10 µM (HT-29) of 47%, an inhibition of growth at 10 µM (MDA-MB-231) of 21% and an inhibition of growth at 10 µM [4] of 81%. It also gave an inhibition of growth at 10 µM (M14) of 38%, an inhibition of growth at 10 µM [5] of 29% and an inhibition of growth at 10 µM (EKVX) of 29%. It also gave an inhibition of growth at 10 µM [6] of 24%, an inhibition of growth at 10 µM [7] of 14% and an inhibition of growth at 10 µM (U-251) of 35%. The inhibition of growth at 10 µM [8] was 44%, the inhibition of growth at 10 µM (T47D) was 71% and the inhibition of growth at 10 µM (K562) was 61%. The inhibition of growth at 10 µM (MDA-MB-468) was 53%, the inhibition of growth at 10 µM [9] was 32% and the inhibition of growth at 10 µM [10] was 11%. It also gave an inhibition of growth at 10 µM [11] of 33%, an inhibition of growth at 10 µM [12] of 32% and an inhibition of growth at 10 µM [13] of 39%. It also gave an inhibition of growth at 10 µM (SR) of 62%, an inhibition of growth at 10 µM [14] of 38% and an inhibition of growth at 10 µM (Malme-3M) of 3%. For the same compound, the inhibition of growth at 10 µM [15] was 35%, the inhibition of growth at 10 µM [16] was 12% and the inhibition of growth at 10 µM [17] was 51%. The inhibition of growth at 10 µM [18] was 34%, the inhibition of growth at 10 µM [19] was 45% and the inhibition of growth at 10 µM [20] was 54%. It also gave an inhibition of growth at 10 µM (NCI-H322M) of 27%, an inhibition of growth at 10 µM [21] of 67% and an inhibition of growth at 10 µM (SK-MEL-5) of 66%.
